Read-outs that look alike come from different tables or passages of the source. One block for each compound: values may come before it.
System: Pseudomonas fluorescens
Experiment: Determination of the minimum inhibitory concentration (MIC) against Pseudomonas fluorescens
Format: cell-based
Details: for MIC: Pseudomonas fluorescens, read-out: MIC value against Pseudomonas fluorescens
Excerpt: The observed synergism of the active compound mixtures, claimed in the present application, consisting of o-phenylphenol (OPP) and other bactericides can be determined by the following mathematical equation (see F. C. Kull, P. C. Elisman, H. D. Sylwestrowicz and P. K. Mayer, Appl. Microbiol. 9, 538 (1960):
[formula] where • Qa=the amount of component A in the active compound mixture which achieves the desired effect, i.e. no microbial growth. • QA=the amount of component A which, when used on its own, suppresses the growth of the microorganisms. • Qb=the amount of component B in the active compound mixture which suppresses the growth of the microorganisms. • Qb=the amount of component B which, when used on its own, suppresses the growth of the microorganisms.
A synergistic index of <1 indicates a synergistic effect for the active compound mixture.
Determination of the Minimum Inhibitory Concentration (MIC) of Compositions According to the Invention Against Pseudomonas fluerescens

[1] = Example 2, OPP/Tektamer 38, weight ratios

Structure (SMILES): Cn1sccc1=O [MIT, 2-methyl-2H-isothiazol-3-one]
- MIC: 30 µg/mL

Structure (SMILES): Oc1ccccc1-c1ccccc1 [OPP, o-phenylphenol]
- MIC value against Pseudomonas fluorescens [1]: 500 µg/mL
- MIC value against Pseudomonas fluorescens (Example 3, OPP/MIT, weight ratios): 500 µg/mL
- MIC: 500 µg/mL

- MIC (Example 1, OPP/BNPD (bronopol), weight ratios): 35 µg/mL
Structure (SMILES): O=[N+]([O-])C(Br)(CO)CO [BNPD, 2-bromo-2-nitro-1,3-propanediol]

- MIC [1]: 100 µg/mL
Structure (SMILES): N#CCCC(Br)(C#N)CBr (stereo not drawn) [Tektamer 38, 1,2-dibromo-2,4-dicyanobutane]

From patent publication US8246942B2, “Microbicidal compositions” (LANXESS Deutschland GmbH, priority 2000, dated 2012)
